Assays:
[1] = test system: Caco-2 Cells; conditions: unlike rapid and efficient in vivo absorption; cited from earlier work
[2] = after oral administration (Gidal and coworkers); cited from earlier work
[3] = physchem; type: physicochemical; conditions: pH 7.4, aqueous buffer
Excerpt: The enhanced absorption may be explained by the use of an additional transport mechanism, such as one of the peptide transporters.

[4] = test system: Caco-2 Cells; conditions: cited from earlier work

N[C@@H](Cc1ccc(O)c(O)c1)C(=O)O [L-dopa]
transport by Caco-2 cells [1]: do not transport L-dopa very well

NCC1(CC(=O)O)CCCCC1 [gabapentin]
intersubject CV for the AUC [2]: 22.5%

N[C@@H](Cc1cc(I)c(Oc2cc(I)c(O)c(I)c2)c(I)c1)C(=O)O [T4, sodium, levothyroxine sodium]
solubility [3]: 6.9 µg/mL

NS(=O)(=O)c1cc2c(cc1Cl)N=CNS2(=O)=O [chlorothiazide]
permeability ([4]; Caco-2): low
absorption in humans [4]: low

Source: patent publication US20050065086A1, “Use of peptide-drug conjugation to reduce inter-subject variability of drug serum levels” (New River Pharmaceuticals Inc., priority 2002, published 2005)
